Data: article PMC7134601 (Febs Letters, 2004)
Entries after “also recorded” stand apart in the source; their conditions may differ.

Experiments:
SARS‐CoV 3CL protease = SARS‐CoV 3CL protease (Severe acute respiratory syndrome coronavirus, UniProt P0C6X7); test: biochemical; assay type: biochemical
SARS‐CoV [1] = assay type: cell-based
SARS‐CoV [2] = assay type: cell-based; remark: listed apart in the source

Compound | inhibition of 3CL protease activity (SARS‐CoV 3CL protease) | inhibition pattern with respect to the substrate (SARS‐CoV 3CL protease) | Ki (SARS‐CoV 3CL protease) [µM] | other results
[Hg+2] [Hg^2+] | effective |  |  | 
[Co+2] [Co^2+] | did not inhibit |  |  | 
O=C(Nc1ccc([N+](=O)[O-])cc1Cl)c1cc(Cl)ccc1O [niclosamide, Niclosamide] | not indicative of any inhibitory effect |  |  | 
[O-]n1ccccc1=S.[O-]n1ccccc1=S.[Zn+2] [1‐Hydroxypyridine‐2‐thione zinc] |  | competitive |  | 
[Cu+2] [Cu^2+] | effective |  | 4.9 ± 1.3 | 
[Mg+2] [Mg^2+] | did not inhibit |  |  | 
[Ni+2] [Ni^2+] | did not inhibit |  |  | 
Oc1c(Cl)cc(Cl)c(Cl)c1Cc1c(O)c(Cl)cc(Cl)c1Cl [Hexachlorophene] |  | competitive | 13.7 ± 0.4 | cytotoxicity (Vero E6 cells): No cytotoxicity; cells still alive (Vero E6 cells; African green monkey): approximately 50%; inhibition of cytopathic effect (SARS‐CoV [1]): strong inhibition
C[CH2][Hg][S]c1ccccc1C(=O)[O-].[Na+] [Thimerosal] |  | competitive | 2.4 ± 0.2 | decrease of the detectable quantity of the spike protein (SARS‐CoV [2]): over 90%
[Zn+2] [Zn^2+] | effective | non‐competitively; also recorded: non‐competitive | 1.1 ± 0.4 | fold larger K i versus 1‐hydroxypyridine‐2‐thione zinc (SARS‐CoV 3CL protease): 6 fold
CC(=O)[O][Hg][c]1ccccc1 [Phenylmercuric acetate] |  | competitive | 0.7 ± 0.3 | effect on detection of the viral spike protein (SARS‐CoV [2]): suppressed detection of the viral spike protein
[Mn+2] [Mn^2+] | did not inhibit |  |  | 
